Each structure is given as a SMILES string.

Series [1] in a line: Acute Toxicity Test. The arrangement: species or system mouse (8-week ddy). As to conditions: mouse, in vivo; oral, 0.5% Tween 80 suspension, six 8-week ddy mice, observed for one month. An excerpt: The compound (2) was suspended in 0.5% Tween 80 solution.
The compound I-7 was suspended in 0.5% Tween 80 solution.

In series [2] the test system is mouse peritoneal macrophage. As to conditions: Table 1; dose 5 μM; microscopic observation.
Series [3] deals with mouse peritoneal macrophage. As to the kind of experiment: In vitro tests on inhibition of foaming of macrophage with mouse peritoneal macrophage (cholesteryl ester formation). Particulars: Table 1, ratio to control, 16 hours at 37° C., read-out: CE (%) (cholesteryl ester-forming rate, ratio to the control). Type of series: cell-based, mouse (female ICR). The method, then:
(1) In vitro tests on inhibition of foaming of macrophage with mouse peritoneal macrophage:
The necks of 15-week old female ICR mice (Japan SLC) were cut off. After blood-letting, Hanks buffer solution (Nissui Seiyaku Co., Ltd.) was injected into the abdominal cavity of each mouse. The abdomen was massaged and then the buffer solution was rapidly recovered, centrifuged at 1000 rotations for 5 minutes to collect the peritoneal macrophages. The peritoneal macrophases thus collected were then suspended in GIT medium (Wako Pure Chemical Industries, Ltd.), and the suspension was spread on a 24-hole microplate. After the cultivation at 37° C. in 5% CO2 for 2 hours, the medium was replaced with a Dulbecoo Modified Eagle's MEM medium (Nissui Seiyaku Co., Ltd.). After the cultivation at 37° C. in 5% CO2 for additional 16 hours, the following substances were added in the following order:
(1) subject: dissolved in DMSO (Wako Pure Chemical Industries, Ltd.)
PC: phosphatidyl choline (a product of Funakoshi)
PS: phosphatidyl serine (ditto)
DCP: dicetyl phosphate (ditto)
CHOL.: cholesterol (Sigma).
After further cultivation at 37° C. in 5% CO2 for 16 hours, the lipid fraction was extracted with chloroform and methanol. The lipid fraction thus extracted was dissolved in isopropyl alcohol, and the formed cholesteryl ester (CE) was determined by an enzymatic coloring method. The cholesteryl ester-forming rate of each compound was calculated in terms of the ratio thereof to the control. The cytotoxicity was examined by microscopic observation of the shape of the cell.
The pharmacological effects of the compounds given in Table 2 were evaluated in the same manner as that of Example 3.

For series [4], the system named is total blood cholesterol. As to the kind of experiment: Effect of reducing blood lipid of rabbit having high-cholesterol feed. Format: in vivo, rabbit (male New Zealand white). Particulars: 30 mg/kg/day mixed with high-cholesterol food, 14 days; based on the control; group of three rabbits. The method, then:
(2) Effect of reducing blood lipid of rabit having high-cholesterol feed:
A high-cholesterol food (100 g/day/rabbit: ORC-4 of Oriental Yeast Co., Ltd. +0.5% cholesterol +0.5% olive oil) was given to each of male New Zealand white rabbits weighing about 2 kg for seven days to make them suffer from hypercholesterolemia.
In the next stage, the high-cholesterol food was still given to the rabbits and, in addition, 30 mg/kg/day/rabbit of the test compound (2) was continuously given in the form of a mixture thereof with the food to a group of three rabbits (test group) for 14 days. On the other hand, only the same high-cholesterol food as above was given in the equal dose to another group of three rabbits (control group).
After the continuous feeding for 14 days followed by fasting for one day, a small amount of the blood was taken from the parotid vein to determine the total blood cholesterol (latripo TC: a product of latron Co. Ltd.).

As for `c1ccc2[nH]c(SCCCCCSc3nc4ccccc4[nH]3)nc2c1` [Compound I-7, 1,5-bis(2-benzimidazoylthio)pentane], in series [1], the LD50 (usually the dose expected to kill half of the subjects tested) at 730 h was at least 5000 mg/kg.
For `CCC(=O)n1c(SCCOCCSc2nc3ccccc3n2C(=O)CC)nc2ccccc21` [Compound (2)], in series [2], the Cytotoxicity entry is listed as “none”. Also, the activity at 5 µM in series [3] turned out to be 7%. For the same molecule, the “total blood cholesterol decreasing rate” value in series [4] came out at 25%. This molecule also returned an LD50 at 730 h in series [1] of at least 5000 mg/kg.
Turning to `CCCn1c(SCCOCCOCCSc2nc3ccccc3n2CCC)nc2ccccc21` [Compound (21)], the Cytotoxicity entry in series [2] is “none”. Besides, in series [3], the activity at 5 µM was 23%.
For `c1ccc(Cn2c(SCCOCCSc3nc4ccccc4n3Cc3ccccc3)nc3ccccc32)cc1` [Compound (10)], in series [2], the Cytotoxicity result is recorded as “none”. Moreover, in series [3], the activity at 5 µM amounted to 76%.
For the molecule `c1ccc2[nH]c(SCCOCCOCCOCCSc3nc4ccccc4[nH]3)nc2c1` [Compound (22)], in series [2], the Cytotoxicity entry is given as “none”. In addition, the activity at 5 µM in series [3] was 22%.
With `CCCCCC(=O)n1c(SCCOCCSc2nc3ccccc3n2C(=O)CCCCC)nc2ccccc21` [Compound (5)], in series [2], the Cytotoxicity result was “none”. Besides, the activity at 5 µM in series [3] stood at 20%.
With `CCC(=O)n1c(SCCOCCOCCSc2nc3ccccc3n2C(=O)CC)nc2ccccc21` [Compound (20)], in series [2], the Cytotoxicity result is “none”. Further, the activity at 5 µM in series [3] came to 69%.
In the case of `CCCCCCCCCCCCCC(=O)n1c(SCCOCCSc2nc3ccccc3n2C(=O)CCCCCCCCCCCCC)nc2ccccc21` [Compound (7)], in series [2], the Cytotoxicity result is reported as “none”. Moreover, in series [3], the activity at 5 µM was 74%.

The record behind these values is patent US5962493A, “2-mercaptobenzimidazole derivatives and antihyperlipemic agent or antiarteriosclerotic agent containing the same” (priority 1997, dated 1999).
